# Laboratory results taken from patent publication US20230058160A1, “METABOLITE-BASED POLYMERS, MICROPARTICLES, AND NANOPARTICLES FOR IMMUNOTHERAPY AND METHODS OF TREATING A DISEASE OR DISORDER” (priority 2020, published 2023).
# Entries after “also recorded” stand apart in the source; their conditions may differ.
# Tests used:
# YUMM1.1 cells = experiment: MTT cell viability assay, YUMM1.1 melanoma cells; type: cell-based, mouse
# Protocol: (§1) In order to determine if PFK15 prevents melanoma cell growth in vitro, two different mouse melanoma cells were utilized, namely YUMM1.1 (BrafV600E/wt, Pten−/− Cdkn2−/−MHClHi) and B16F10. Specifically, YUMM1.1 and B16F10 cells were cultured with different concentrations of […], and the percentage cell viability was determined using MTT assay.
# as §1, with “if […]” for “if PFK15”, “YUMM1.1” for “YUMM1.1 (BrafV600E/wt, Pten−/− Cdkn2−/−MHClHi)”
# [1] = tested on: bone marrow derived dendritic cells; experiment: Dendritic cell activation by flow cytometry (MHCII, CD86, CD11c); type: cell-based, C57BL/6j mice; conditions: for DC activation (CD86+ and MHCII+CD86+ populations in CD11c+ DCs), inhibitor alone: 200 nM PFK15 or 30 nM CB-839; for concentration that prevented the activation of DCs: 24 hours incubation, MHCII, CD86, CD11c staining
# Protocol: In order to test the effect of PFKFB3 inhibition on DC and T cell activation, PFK15 was employed. Specifically, DCs were isolated from bone marrow of C57BL/6j mice using GM-CSF, and incubated with different concentrations of PFK15 (50, 100, 200, 400, 800, 1600 nM) for 24 hours. These cells were then stained for MHCII, CD86 and CD 11c to determine activation profile. It was observed that at 200 nM and higher concentrations of PFK15 prevented the activation of DCs (FIG. 3—200 nM shown as example).
# In order to test the effect of glutaminase inhibition on DC activation, bone marrow DCs were isolated from C57BL/6j mice and cultured with different concentrations of CB-839, a clinically validated molecule (0, 15, 30, 60, 120 nM) for 24 hours. These cells were then stained for MHCII, CD86, and CD11c to determine activation profile. It was observed that at 30 nM and higher concentrations of CB-839 prevented the activation of DCs (FIG. 11—30 nM is shown as a representative example).
# Specifically, DCs were cultured in the presence of CB-839 with or without PEGS (0.1 mg/mL) and with or without LPS (0.1 μg/mL) for 24 hours. Cells were then stained for MHC-II, CD86 and CD11c and analyzed using flow cytometry.
# DCs = experiment: Seahorse ECAR/OCR of dendritic cells (glycolysis stress test); type: cell-based, C57BL/6j mice
# Protocol: In order to test if F16BP particles can rescue DCs from exhaustion when cultured in the presence of PFK15, ECAR using Seahorse assays was utilized. Specifically, DCs were cultured with either PFK 15 (200 nM), F16BP (0.1 mg/mL) or PFK15+F16BP with or without LPS and ECAR measurements were obtained.
# Specifically, immature DCs were obtained from C57BL/6j mice and cultured with PEGS (0.1 mg/mL) with or without CB-839 (30 nM or 240 nM) for 16 hours. After 16 hours of incubation, DCs were incubated in glucose free medium and ECAR and OCR values were recorded using Seahorse extracellular flux (XF) analyzer (glucose addition at 20 min).
# B16F10 cells = experiment: MTT cell viability assay, B16F10 melanoma cells; type: cell-based, mouse
# Protocol: as §1
# as §1, with “if […]” for “if PFK15”, “YUMM1.1” for “YUMM1.1 (BrafV600E/wt, Pten−/− Cdkn2−/−MHClHi)”
# YUMM1.1 tumors = experiment: YUMM1.1 tumor model in mice; type: in vivo
# Protocol: In order to determine if the injection of F16BP particles in vivo can lead to longer survival in mice, study design shown in FIG. 7A and FIG. 7B was followed.
# In order to test the efficacy of F16BP particles-based vaccines to reduce tumor growth in mice, C57BL/6j mice were utilized. Specifically, tumors were induced by injecting 0.75×10^6 cells in the back of the mice. From day 18 onwards, mice were injected with the F16BP based vaccines injected subcutaneously (0.5 mg/mouse) every 3 days (total 3 treatments—days 21, 24, 27) with PFK15 (5 mg/kg) injected every other day intraperitoneally (FIG. 7A—same study design as survival but mice euthanized day 28 for T cell analyses). Controls included PFK15 injections every alternate day, or no treatment. Mice were then sacrificed on day 26 and the tumors, draining lymph nodes, and non-draining contralateral lymph nodes were harvested.
Compound,"IC50 (YUMM1.1 cells; Mus musculus, MTT assay, percentage cell viability, read-out: IC50 to prevent proliferation of YUMM1.1 cells) [nM]","DC activation (CD86+ and MHCII+CD86+ populations in CD11c+ DCs), inhibitor alone [1]",concentration that prevented the activation of DCs [1] [nM],"glycolysis and mitochondrial respiration in DCs (ECAR and OCR), CB-839 alone (DCs; 30 nM CB-839, 16 hours)",killing of YUMM1.1 cells in vitro (YUMM1.1 cells),"IC50 of YUMM1.1 melanoma cells using PFK-15 (FIG. 6B) (YUMM1.1 cells; MTT assay, n=6) [nM]",killing of B16F10 cells in vitro (B16F10 cells),"DC activation (CD86+ and MHCII+CD86+ populations in CD11c+ DCs), inhibitor alone ([1]; listed as PFK-15)","ECAR of DCs, PFK15 without LPS (DCs; PFK15 200 nM without LPS)","tumor burden / tumor growth (YUMM1.1 tumors; F16BP vaccine 0.5 mg/mouse s.c., PFK15 5 mg/kg i.p., vs PFK15 alone and no treatment)",improvement of survival of mice (YUMM1.1 tumors; PFK15 5 mg/kg intraperitoneally every other day) [days]
O=C(Cc1cccc(OC(F)(F)F)c1)Nc1ccc(CCCCc2nnc(NC(=O)Cc3ccccn3)s2)nn1 [CB-839],3.75,significantly reduces activation in DCs,≥ 30,block glycolysis and mitochondrial respiration; also recorded: do not upregulate glycolysis or mitochondrial respiration,,,,,,,
O=C(/C=C/c1ccc2ccccc2n1)c1ccncc1 [PFK15],,significantly reduces activation in DCs,≥ 200,,able to kill,5000,able to kill,downregulated,even lower than the no treatment control,significant improvements in tumor burden,15
